Results published in US12662491B2 (Redona Therapeutics, Inc., priority 2020, dated 2026).

Biological target: T1, Zcchc11 enzyme (Homo sapiens, UniProt Q5TAX3)
T1 construct: made in house; host or cells: HEK293 cells (Zcchc11); E. coli Rosetta II (LIN28A)
T1 sequence (Q5TAX3 212-1420): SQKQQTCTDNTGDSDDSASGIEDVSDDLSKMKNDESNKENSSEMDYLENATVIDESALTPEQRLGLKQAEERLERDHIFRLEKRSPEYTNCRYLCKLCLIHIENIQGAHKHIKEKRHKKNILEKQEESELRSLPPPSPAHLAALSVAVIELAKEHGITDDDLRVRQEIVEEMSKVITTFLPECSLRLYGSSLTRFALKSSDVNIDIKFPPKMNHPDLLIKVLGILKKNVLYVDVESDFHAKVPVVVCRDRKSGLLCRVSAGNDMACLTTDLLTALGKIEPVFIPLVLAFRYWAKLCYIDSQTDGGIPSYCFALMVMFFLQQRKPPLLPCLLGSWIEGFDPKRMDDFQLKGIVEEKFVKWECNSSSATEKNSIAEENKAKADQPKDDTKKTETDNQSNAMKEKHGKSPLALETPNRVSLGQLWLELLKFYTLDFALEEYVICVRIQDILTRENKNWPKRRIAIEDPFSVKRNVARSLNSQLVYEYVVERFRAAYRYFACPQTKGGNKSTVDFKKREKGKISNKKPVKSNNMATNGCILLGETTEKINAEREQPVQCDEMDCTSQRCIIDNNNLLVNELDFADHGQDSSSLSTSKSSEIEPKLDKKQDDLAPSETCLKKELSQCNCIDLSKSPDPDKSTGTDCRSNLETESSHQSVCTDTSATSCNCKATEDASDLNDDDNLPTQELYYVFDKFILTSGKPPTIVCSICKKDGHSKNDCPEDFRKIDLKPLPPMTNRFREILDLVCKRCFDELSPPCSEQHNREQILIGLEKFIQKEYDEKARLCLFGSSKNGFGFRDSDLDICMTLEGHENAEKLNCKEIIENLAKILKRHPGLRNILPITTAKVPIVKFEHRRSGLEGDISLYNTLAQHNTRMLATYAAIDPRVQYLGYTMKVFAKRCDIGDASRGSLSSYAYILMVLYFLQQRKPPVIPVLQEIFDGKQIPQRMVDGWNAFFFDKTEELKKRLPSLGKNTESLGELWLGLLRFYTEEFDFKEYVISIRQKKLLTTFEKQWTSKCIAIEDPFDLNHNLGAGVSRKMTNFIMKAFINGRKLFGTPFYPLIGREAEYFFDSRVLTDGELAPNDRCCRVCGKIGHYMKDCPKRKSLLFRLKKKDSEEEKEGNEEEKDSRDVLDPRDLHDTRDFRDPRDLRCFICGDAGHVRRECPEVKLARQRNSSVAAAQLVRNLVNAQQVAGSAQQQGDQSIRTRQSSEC
Experiment: TUTase assay (Zcchc11 assay, Lin28a-dependent polyuridylation of pre-let-7)
Assay type: biochemical
Settings: Lin28a-dependent Zcchc11 (Z11) TUTase activity; read-out: Potency Lin28a-dep Z11 IC50
In short: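 Readout: time-dependent quench of 5′-fluorescein pre-let-7 (2 nM) as 3′-rhodamine A20 probe anneals to poly(U) tails. Enzyme 0.2 nM Zcchc11 (res. 212-1420), LIN28A 10 nM, UTP 5 uM; pH 7.3 HEPES, 150 mM KCl, 5 mM MgCl2, RT. 4-parameter IC50; 100% = DMSO, 0% = no UTP.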

rac-6- chloro-7- ((2R,3S)-2- (((3- chloropyridin- 2- yl)oxy) methyl)-3- methyl- pyrrolidin-1- yl)-1-(6-(3- (dimethyl- amino) azetidin-1- yl)pyridin- 3-yl)-4- oxo-1,4- dihydro- quinoline-3- carboxylic acic [Compound 260]
IC50: ≤ 1000 nM
